Results taken from patent US20250230193A1, “CYCLIC COMPOUND HAVING SELECTIVE KRAS INHIBITORY EFFECT ON HRAS AND NRAS” (CHUGAI SEIYAKU KABUSHIKI KAISHA, priority 2022, published 2025).
Where a SMILES comes first, the peptide text is derived from it. Bridges are numbered along the chain shown (N, C = ends). [ ]: non-standard residue; d: D form. hPhe(3-Cl-4-CF3) = N[C@@H](CCc1ccc(C(F)(F)F)c(Cl)c1)C(=O)O; NPrPhe(4-CF3) = CCCN[C@@H](Cc1ccc(C(F)(F)F)cc1)C(=O)O; NMeGly(cPent) = CN[C@H](C(=O)O)C1CCCC1; Hyp = O=C(O)[C@@H]1C[C@@H](O)CN1; NMeD = CN[C@@H](CC(=O)O)C(=O)O; NMeL = CN[C@@H](CC(C)C)C(=O)O; Aze = O=C(O)[C@@H]1CCN1; Ac4c = NC1(C(=O)O)CCC1; Sar = CNCC(=O)O

Assays:
[1] = biological target: GDP-bound NRAS wild-type protein (Homo sapiens, UniProt P01111); experiment: Binding to NRAS by surface plasmon resonance (SPR), Single Cycle Kinetics
Chain of GDP-bound NRAS wild-type protein (P01111 whole entry): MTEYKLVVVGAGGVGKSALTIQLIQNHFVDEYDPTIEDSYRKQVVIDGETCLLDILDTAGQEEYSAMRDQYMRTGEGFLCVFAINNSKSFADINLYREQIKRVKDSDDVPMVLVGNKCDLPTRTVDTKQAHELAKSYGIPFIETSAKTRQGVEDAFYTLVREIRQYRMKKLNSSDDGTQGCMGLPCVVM

[2] = biological target: GDP-bound HRAS wild-type protein (Homo sapiens, UniProt P01112); experiment: Binding to HRAS by surface plasmon resonance (SPR), Single Cycle Kinetics
Chain of GDP-bound HRAS wild-type protein (P01112 whole entry): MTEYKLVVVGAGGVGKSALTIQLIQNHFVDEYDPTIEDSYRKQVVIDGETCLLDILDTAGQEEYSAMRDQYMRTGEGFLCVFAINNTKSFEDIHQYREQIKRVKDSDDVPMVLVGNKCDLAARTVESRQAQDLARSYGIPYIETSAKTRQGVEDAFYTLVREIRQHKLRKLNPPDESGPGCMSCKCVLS

[3] = KD ratio, GDP-bound NRAS wild-type vs GDP-bound KRAS wild-type, SPR
[4] = KD ratio, GDP-bound HRAS wild-type vs GDP-bound KRAS wild-type, SPR

CCC[C@H]1C(=O)N[C@@H]([C@@H](C)CC)C(=O)N(C)CC(=O)N(C)[C@H]2C/C=C\CCN(C2=O)[C@@H](Cc2ccc(C(F)(F)F)cc2)C(=O)N(C)CC(=O)N[C@@H](CCc2ccc(Cl)c(Cl)c2)C(=O)N2C[C@H](OCC)C[C@H]2C(=O)NC2(CC(C)(C)C2)C(=O)N(C)[C@@H](CC2CC2)C(=O)N(C)[C@H](C(=O)N(C)C)CC(=O)N1C [PP2811]
NRAS/KRAS (ratio of KD value with respect to GDP-bound NRAS wild-type protein to KD value with respect to KRAS) ([1]; class symbols): A (a compound having 10 or more and less than 20 is denoted as A) | HRAS/KRAS (ratio of KD value with respect to GDP-bound HRAS wild-type protein to KD value with respect to KRAS) ([2]; class symbols): A (a compound having 10 or more and less than 20 is denoted as A)

CCCOC[C@H]1C(=O)N[C@@H]([C@@H](C)CC)C(=O)N(C)CC(=O)N(C)[C@H]2C/C=C\CCN(C2=O)[C@@H](Cc2ccc(C)cc2)C(=O)N(C)CC(=O)N[C@@H](CCc2ccc(C(F)(F)F)c(Cl)c2)C(=O)N2C[C@H](OCC)C[C@H]2C(=O)NC2(CC(C)(C)C2)C(=O)N(C)[C@@H](C2CCCC2)C(=O)N(C)[C@H](C(=O)N(C)CC)CC(=O)N1C [PP2469]
NRAS/KRAS (ratio of KD value with respect to NRAS to KD value with respect to KRAS) ([1]; SPR, GDP-bound NRAS wild-type vs GDP-bound KRAS wild-type): A (a compound having 10 or more and less than 20 is denoted as A) | HRAS/KRAS (ratio of KD value with respect to HRAS to KD value with respect to KRAS) ([2]; SPR, GDP-bound HRAS wild-type vs GDP-bound KRAS wild-type): B (a compound having 3 or more and less than 10 is denoted as B)

CCC[C@H]1C(=O)N[C@@H]([C@@H](C)CC)C(=O)N(C2CC2)CC(=O)N(C)[C@H]2C/C=C\CCN(C2=O)[C@@H](Cc2ccc(C(F)(F)F)cc2)C(=O)N(C)CC(=O)N[C@@H](CCc2cc(F)c(C(F)(F)F)c(F)c2)C(=O)N2C[C@H](OCC)C[C@H]2C(=O)NC2(CC(C)(C)C2)C(=O)N(C)[C@@H](CC(C)(C)C)C(=O)N(C)[C@H](C(=O)N(C)C)CC(=O)N1C [PP2742]
NRAS/KRAS (ratio of KD value with respect to GDP-bound NRAS wild-type protein to KD value with respect to KRAS) ([1]; class symbols): AA (a compound having 20 or more is denoted as AA) | HRAS/KRAS (ratio of KD value with respect to GDP-bound HRAS wild-type protein to KD value with respect to KRAS) ([2]; class symbols): A (a compound having 10 or more and less than 20 is denoted as A)

CCC[C@H]1C(=O)N[C@@H]([C@@H](C)CC)C(=O)N(C)CC(=O)N(C)[C@H]2C/C=C\CCN(C2=O)[C@@H](Cc2ccc(C(F)(F)F)cc2)C(=O)N(C)CC(=O)N[C@@H](CCc2ccc3ccn(C)c3c2)C(=O)N2C[C@H](OCC)C[C@H]2C(=O)NC2(CC(C)(C)C2)C(=O)N(C)[C@@H](C(CC)CC)C(=O)N(C)[C@H](C(=O)N(C)C)CC(=O)N1C [PP2912]
NRAS/KRAS (ratio of KD value with respect to GDP-bound NRAS wild-type protein to KD value with respect to KRAS) ([1]; class symbols): AA (a compound having 20 or more is denoted as AA) | HRAS/KRAS (ratio of KD value with respect to GDP-bound HRAS wild-type protein to KD value with respect to KRAS) ([2]; class symbols): A (a compound having 10 or more and less than 20 is denoted as A)

CCC[C@H]1C(=O)N[C@@H]([C@@H](C)CC)C(=O)N2CC[C@H]2C(=O)N(C)[C@H]2C/C=C\CCN(C2=O)[C@@H](Cc2ccc(C(F)(F)F)cc2)C(=O)N(C)CC(=O)N[C@@H](CCc2cc(F)c(C(F)(F)F)c(F)c2)C(=O)N2C[C@H](OCC)C[C@H]2C(=O)NC2(CC(C)(C)C2)C(=O)N(C)[C@@H](C2CCCC2)C(=O)N(C)[C@H](C(=O)N(C)C)CC(=O)N1C [PP1925]
NRAS/KRAS (ratio of KD value for NRAS to KD value for KRAS) [1, 3]: A (a compound having 10 or more and less than 20 is denoted as A) | HRAS/KRAS (ratio of KD value for HRAS to KD value for KRAS) [2, 4]: A (a compound having 10 or more and less than 20 is denoted as A)

CCO[C@@H]1C[C@H]2C(=O)NC3(CCC3)C(=O)N(C)[C@@H](C3CCCC3)C(=O)N(C)[C@H](C(=O)N(C)C)CC(=O)N(C)[C@@H](Cc3ccc(C#N)cc3)C(=O)N[C@@H]([C@@H](C)CC)C(=O)N(C)CC(=O)N(C)[C@H]3CCCCCN(C3=O)[C@@H](Cc3ccc(F)cc3)C(=O)N(C)CC(=O)N[C@@H](CCc3cc(F)c(C(F)(F)F)c(F)c3)C(=O)N2C1 [PP1157]
NRAS/KRAS (ratio of KD value with respect to NRAS to KD value with respect to KRAS) [1, 3]: B (a compound having 3 or more and less than 10 is denoted as B) | HRAS/KRAS (ratio of KD value with respect to HRAS to KD value with respect to KRAS) [2, 4]: B (a compound having 3 or more and less than 10 is denoted as B)

CCCN1C(=O)[C@@H]2CCN2C(=O)CN(C)C(=O)[C@H]([C@@H](C)CC)NC(=O)[C@H](CC(C)C)N(C)C(=O)C[C@@H](C(=O)N(C)C)N(C)C(=O)[C@H](C2CCCC2)N(C)C(=O)C2(CCC2)NC(=O)[C@@H]2C[C@@H](OCC)CN2C(=O)[C@H](CCc2ccc(C(F)(F)F)c(Cl)c2)NC(=O)CN(C)C(=O)[C@@H]1Cc1ccc(C(F)(F)F)cc1 [PP0445] ([NMeL]I[Sar][Aze][NPrPhe(4-CF3)][Sar][hPhe(3-Cl-4-CF3)][Hyp](Et)[Ac4c][NMeGly(cPent)][NMeD]-NMe2; lactam N-11)
NRAS/KRAS (ratio of KD value with respect to GDP-bound NRAS wild-type protein to KD value with respect to KRAS) ([1]; SPR): C (A compound having a KD ratio of 0.1 or more and less than 3 is denoted as C) | HRAS/KRAS (ratio of KD value with respect to GDP-bound HRAS wild-type protein to KD value with respect to KRAS) ([2]; SPR): C (A compound having a KD ratio of 0.1 or more and less than 3 is denoted as C)
